Data taken from patent US20250340581A1, “PAEONIFLORIN MONOHYDRATE CRYSTAL FORM A, PREPARATION METHOD THEREFOR, AND USE THEREOF” (SHANGHAI INSTITUTE OF MATERIA MEDICA.CHINESE ACADEMY OF …, priority 2023, published 2025).

Columns and labels:
Assay type in all cases: physicochemical
[1] = Thermal stability by TG and DSC
Protocol: DSC analysis: the method adopts a DSC 8500 model differential scanning calorimeter of PerkinElmer company, US. for detection, the atmosphere is nitrogen, and the heating speed is 10° C./min.
TG analysis: the method adopts a thermogravimetric analyzer Netzsch TG 209F3 model of German […] company, temperature range: 30-400° C., scan rate: 10° C./min, purge gas: 25 mL/min.

[2] = Solubility in water
Protocol: The crystal form A has good water solubility, the solubility in water is more than 20 mg/mL, and the crystal form A is easy to dissolve.

[3] = Accelerated stability in a stability box (40° C./75% RH); conditions: 15 days acceleration
[4] = Hygroscopicity test by dynamic moisture sorption (DVS); conditions: for adsorbed moisture: 80% RH, 25° C., DVS
Protocol: DVS analysis: all dynamic moisture sorption analysis […] of this experiment were determined by DVS advantage model sorption instrument, British SMS company, relative humidity range: 0-95%, temperature: 25° C. Commercially available paeoniflorin (Aladdin Company, batch number K2011169, purity ≥98%) was used as the amorphous powder, and its X-ray powder diffraction comparison diagram with the crystal form A of the present invention is shown in FIG. 6, and the hygroscopicity analysis comparison diagram of paeoniflorin and the crystal form A of the present invention is shown in FIG. 7. […] The hygroscopicity of crystal form B was analyzed using DVS advantage adsorption instrument of SMS company in the UK, the amorphous form adsorbed 11.1% of water at 80% RH, showing hygroscopicity; Paeoniflorin crystal form B of the present invention adsorbed 2.22% of water at 80% RH, but its hygroscopicity was obviously different from that of crystal form A.

SMILES	phase transition and weight loss temperatures [1]	solubility [2]	physical stability (conversion to amorphous or other forms) [3]	adsorbed moisture ([4]; listed as paeoniflorin monohydrate crystal form A)	hygroscopicity (qualitative) ([4]; no wet agglomeration, powder has good fluidity)	adsorbed moisture [4]
CC12CC3(O)OC(O1)C1(COC(=O)c4ccccc4)C3CC21OC1OC(CO)C(O)C(O)C1O (stereo not shown) [crystal form A]	above 100 °C	> 20 mg/mL	did not convert to amorphous or other forms	0.3%	small hygroscopicity	–
CC12CC3(O)OC(O1)C1(COC(=O)c4ccccc4)C3CC21OC1OC(CO)C(O)C(O)C1O (stereo not shown) [Paeoniflorin crystal form B]	–	–	–	–	–	2.22%
CC12CC3(O)OC(O1)C1(COC(=O)c4ccccc4)C3CC21OC1OC(CO)C(O)C(O)C1O (stereo not shown) [amorphous form, reference compound]	–	–	–	–	–	11.1%
